Results from patent publication US6387389B1 (priority 1996, dated 2002).

Experiments:
[1] = tested on: food-maintained and cocaine-maintained responding in rhesus monkeys; settings: rhesus monkey, in vivo
[2] = tested on: dopamine (DA) and serotonin (5-HT) in nucleus accumbens dialysate; test: In vivo microdialysis with methamphetamine challenge; design: species or system male Sprague-Dawley rats; settings: 0.7 ml/kg im
[3] = tested on: food-maintained and cocaine-maintained responding in rhesus monkeys; settings: comparison value for the shorter-acting drug; cited from earlier work
[4] = tested on: dopamine transporter versus serotonin and norepinephrine transporters; settings: Rothman et al. (1993); cited from earlier work
[5] = biological target: T1, reuptake of tritiated serotonin ([3H]5HT), rat whole brain minus cerebellum synaptosomes (Rattus norvegicus, UniProt P31652); format: biochemical
T1 construct: homogenization of rat caudate (DA) or whole brain minus cerebellum (5HT); from tissue; host or cells: rat whole brain minus cerebellum, synaptosomes
T1 sequence (P31652 whole entry): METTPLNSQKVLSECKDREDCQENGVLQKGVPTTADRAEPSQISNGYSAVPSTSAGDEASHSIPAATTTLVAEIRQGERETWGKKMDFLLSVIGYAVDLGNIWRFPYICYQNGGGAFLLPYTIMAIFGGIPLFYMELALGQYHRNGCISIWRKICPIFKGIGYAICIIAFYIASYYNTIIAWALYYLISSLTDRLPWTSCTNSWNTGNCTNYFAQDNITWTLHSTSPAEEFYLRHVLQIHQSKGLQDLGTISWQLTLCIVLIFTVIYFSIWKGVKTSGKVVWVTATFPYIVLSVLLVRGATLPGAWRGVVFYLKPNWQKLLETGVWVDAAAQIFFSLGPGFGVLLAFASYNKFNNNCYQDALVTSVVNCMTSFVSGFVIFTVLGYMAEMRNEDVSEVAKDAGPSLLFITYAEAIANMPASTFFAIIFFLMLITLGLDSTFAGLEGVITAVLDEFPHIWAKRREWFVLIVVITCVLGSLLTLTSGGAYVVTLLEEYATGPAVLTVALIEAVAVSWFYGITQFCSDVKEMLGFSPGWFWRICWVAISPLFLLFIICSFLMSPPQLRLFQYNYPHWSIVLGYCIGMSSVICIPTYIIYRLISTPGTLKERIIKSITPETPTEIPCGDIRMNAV

[6] = methamphetamine 1 mg/kg iv four days later, FIG. 4 (percent of baseline)

SMILES: CCCCCCCCCC(=O)OC(CCN1CCN(CCOC(c2ccc(F)cc2)c2ccc(F)cc2)CC1)c1ccccc1 (racemic) [compound 5*, (±)1-[2-Bis-(p-fluorophenyl)methoxy]ethyl]-4-(3-hyroxy-3-phenylpropyl)piperazine decanoate ester]
- duration of sustained and selective effect on cocaine-maintained responding [1]: almost thirty days
- increase of basal levels of dopamine (DA) ([2]; four days after injection, FIG. 3): two-fold
- ability of methamphetamine to increase dopamine levels ([2]; methamphetamine 1 mg/kg iv four days later, FIG. 3 (picogram/fraction)): essentially eliminated
- ability of methamphetamine to increase dopamine [2, 6]: blunted
- ability of methamphetamine to increase serotonin (5-HT) [2, 6]: blunted

SMILES: Fc1ccc(C(OCCN2CCN(CCCc3ccccc3)CC2)c2ccc(F)cc2)cc1 [GBR 12909, 1-[2-[bis(4-fluorophenyl)methoxy]ethyl]-4-[3-phenylpropyl]piperazine]
- duration of effect on cocaine-maintained responding [3]: 4 to 6 h

SMILES: c1ccc(CCCN2CCCN(CCOC(c3ccccc3)c3ccccc3)CC2)cc1 [LR1111, 1-[2-(diphenyl-methoxy)-ethyl]-4-(3-phenylpropyl)homopiperazine]
- selectivity for the dopamine transporter over the serotonin and norepinephrine transporters [4]: over 4,000 fold

SMILES: NCCc1c[nH]c2ccc(O)cc12 [[^3H]5HT]
- Km [5]: 0.0174 ± 0.0008 µM
